Experimental data taken from patent US8163718B2, “Nucleoside analogues containing phosphonate or phosphonamide groups” (Gilead Sciences, Inc., priority 2008, dated 2012).

System: naturally occurring non-Hodgkin's lymphoma
Experiment: Efficacy in a dog with naturally occurring non-Hodgkin's lymphoma (RECIST)
Format: in vivo
Parameters: key to Lymphnode R PSLN size / Lymphnode L PopLN size / Lymphnode L SMLN size / Lymphnode R SMLN size / Lymphnode L PSLN size: WNL refers to when a lymph node is decreased to a size considered within normal ranges for that node
Conditions: for % change of sum of lymphnodes: vs baseline sum; for Sum of lymphnodes: Day 0 pre treatment sum 16.9
Protocol: Compound (21) was evaluated for efficacy in a dog with naturally occurring non-Hodgkin's lymphoma (NHL). Canine NHL has proven to be a relevant model for preclinical evaluation of new therapeutics, both for initial induction and rescue of drug-resistant relapse (Reference Vail D M, Thamm D H. Spontaneously occurring tumors in companion animals as models for drug development. In: Teisher B A, ed. Anticancer Drug Development Guide. 2nd ed. Totowa (NJ): Humana Press Inc; 2004; 259-286.) Evaluation of novel therapeutic approaches in dogs with spontaneous cancer offers potential benefit to canine patients and a rapid assessment of therapeutic index. Because the tumors arise spontaneously in an immunologically intact host and have greater heterogeneity than passaged cell lines, it is not surprising that responses to standard chemotherapeutic agents in canine malignancies are similar to those of the corresponding tumors in man and that the preclinical results attained may be more predictive of the activity in humans (references; Khanna C, Paoloni M. Translation of new cancer treatments from pet dogs to humans. Nature Rev Cancer. 2008; 8:7-16.; Vail D M, Young K M. Canine lymphoma and lymphoid leukemia. In: Withrow S J, Vail D M, eds. Small Animal Clinical Oncology. 4th Ed. St. Louis (MO): Saunders; 2007. p. 699-733.) Non-Hodgkin's lymphoma in dogs represents a relatively homogenous population with respect to histological type as defined by the REAL/WHO or NCI-Working Formulation schema (i.e., 85% are medium- to high-grade B-cell NHL) with the majority being diffuse large B-cell lymphoma (reference Jacobs R M, Messick J B, Valli V E. Tumors of the hemolymphatic system. In: Meuten D J, editor. Tumors in Domestic Animals. 4th Ed. Ames (IA): Iowa State Press; 2002:119-198).
Compound (21) was administered at a dose of 0.3 mg/kg of body weight by 30 minute IV infusion in Sterile Saline Injection (0.9% sodium chloride for injection) (total volume 2 ml/kg or 100 ml) once every 21 days to a dog that had non-Hodgkin's lymphoma involving multiple lymphnodes. Diagnosis was confirmed by histological evaluation of the tumor. The effect of treatment on the tumor was measured using the Response Evaluation Criteria in Solid Tumors (RECIST) Guideline (Therasse et al 2000). The size of the tumors and response to treatment was evaluated by in these peripherally accessible lymph nodes, by measuring the longest dimension using callipers and evaluating changes in the individual tumor measurement and their sums. […] Confirmation was done by cytological examination of an aspirated biopsy to confirm the absence of tumor cells.

[1] = Day 7 (printed under the Day 1 column)
[2] = Day 14 (printed under the Day 7 column)
[3] = Day 21 (printed under the Day 14 column)
[4] = Day 28 (printed under the Day 21 column)
[5] = Day 42 (printed under the Day 28 column)

Structure (SMILES): CCCOc1nc(N)nc2c1ncn2CCOCP(=O)(N1CCC[C@H]1C(=O)OCC)N1CCC[C@H]1C(=O)OCC [Example 21]
- % change of sum of lymphnodes (Day 1 (printed under the Day 0 column)): −13.0%
- Lymphnode L PopLN longest dimension (Day 1, 0.3 mg/kg IV once every 21 days, Day 0 pre treatment 2.3): 2.1 cm
- Lymphnode R SMLN longest dimension (Day 1, 0.3 mg/kg IV once every 21 days, Day 0 pre treatment 2.9): 3.1 cm
- Lymphnode L SMLN longest dimension (Day 1, 0.3 mg/kg IV once every 21 days, Day 0 pre treatment 3.1): 2.0 cm
- Lymphnode R PSLN longest dimension (Day 1, 0.3 mg/kg IV once every 21 days, Day 0 pre treatment 3.6): 3.6 cm
- Lymphnode L PSLN longest dimension (Day 1, 0.3 mg/kg IV once every 21 days, Day 0 pre treatment 5.0): 3.9 cm
- Sum of lymphnodes (Day 1, 0.3 mg/kg IV once every 21 days): 14.7 cm
- Change of sum of lymphnodes (Day 1 vs Day 0 pre treatment sum 16.9): −2.2 cm
- Response (RECIST) [1]: PR (Partial Response (PR) if at least a 30% decrease in the sum of the LD of target lesions, taking as reference the baseline sum)
- % change of sum of lymphnodes [1]: −66.3%
- Lymphnode L PopLN longest dimension (Day 7, 0.3 mg/kg IV once every 21 days, Day 0 pre treatment 2.3): 1.6 cm
- Lymphnode R SMLN longest dimension (Day 7, 0.3 mg/kg IV once every 21 days, Day 0 pre treatment 2.9): 1.0 cm
- Lymphnode L SMLN longest dimension (Day 7, 0.3 mg/kg IV once every 21 days, Day 0 pre treatment 3.1): 1.1 cm
- Lymphnode R PSLN longest dimension (Day 7, 0.3 mg/kg IV once every 21 days, Day 0 pre treatment 3.6): 1.0 cm
- Lymphnode L PSLN longest dimension (Day 7, 0.3 mg/kg IV once every 21 days, Day 0 pre treatment 5.0): 1.0 cm
- Sum of lymphnodes (Day 7): 5.7 cm
- Change of sum of lymphnodes (Day 7 vs Day 0 pre treatment sum 16.9): −11.2 cm
- Response (RECIST) [2]: PR (Partial Response (PR) if at least a 30% decrease in the sum of the LD of target lesions, taking as reference the baseline sum)
- % change of sum of lymphnodes [2]: −69.2%
- Lymphnode L PopLN longest dimension (Day 14, 0.3 mg/kg IV once every 21 days, Day 0 pre treatment 2.3): 1.0 cm
- Lymphnode R SMLN longest dimension (Day 14, 0.3 mg/kg IV once every 21 days, Day 0 pre treatment 2.9): 1.0 cm
- Lymphnode L SMLN longest dimension (Day 14, 0.3 mg/kg IV once every 21 days, Day 0 pre treatment 3.1): 1.0 cm
- Lymphnode R PSLN longest dimension (Day 14, 0.3 mg/kg IV once every 21 days, Day 0 pre treatment 3.6): 1.0 cm
- Lymphnode L PSLN longest dimension (Day 14, 0.3 mg/kg IV once every 21 days, Day 0 pre treatment 5.0): 1.2 cm
- Sum of lymphnodes (Day 14): 5.2 cm
- Change of sum of lymphnodes (Day 14 vs Day 0 pre treatment sum 16.9): −11.7 cm
- Lymphnode L PopLN longest dimension (Day 21 (Treatment #2), 0.3 mg/kg IV once every 21 days, Day 0 pre treatment 2.3): 1.3 cm
- Lymphnode R SMLN longest dimension (Day 21 (Treatment #2), 0.3 mg/kg IV once every 21 days, Day 0 pre treatment 2.9): 2.0 cm
- Lymphnode L SMLN longest dimension (Day 21 (Treatment #2), 0.3 mg/kg IV once every 21 days, Day 0 pre treatment 3.1): 2.3 cm
- Lymphnode R PSLN longest dimension (Day 21 (Treatment #2), 0.3 mg/kg IV once every 21 days, Day 0 pre treatment 3.6): 2.7 cm
- Lymphnode L PSLN longest dimension (Day 21 (Treatment #2), 0.3 mg/kg IV once every 21 days, Day 0 pre treatment 5.0): 2.8 cm
- Sum of lymphnodes (Day 21 (Treatment #2)): 11.1 cm
- Response (RECIST) [3]: PR (Partial Response (PR) if at least a 30% decrease in the sum of the LD of target lesions, taking as reference the baseline sum)
- % change of sum of lymphnodes [3]: −34.3%
- Change of sum of lymphnodes (Day 21 vs Day 0 pre treatment sum 16.9): −5.8 cm
- Response (RECIST) [4]: PR (Partial Response (PR) if at least a 30% decrease in the sum of the LD of target lesions, taking as reference the baseline sum)
- % change of sum of lymphnodes [4]: −67.5%
- Lymphnode R SMLN longest dimension (Day 28, 0.3 mg/kg IV once every 21 days, Day 0 pre treatment 2.9): 1.0 cm
- Lymphnode L SMLN longest dimension (Day 28, 0.3 mg/kg IV once every 21 days, Day 0 pre treatment 3.1): 1.5 cm
- Lymphnode R PSLN longest dimension (Day 28, 0.3 mg/kg IV once every 21 days, Day 0 pre treatment 3.6): 1.5 cm
- Lymphnode L PSLN longest dimension (Day 28, 0.3 mg/kg IV once every 21 days, Day 0 pre treatment 5.0): 1.5 cm
- Sum of lymphnodes (Day 28): 5.5 cm
- Change of sum of lymphnodes (Day 28 vs Day 0 pre treatment sum 16.9): −11.4 cm
- Lymphnode L PopLN size (Day 42 (Treatment #3), 0.3 mg/kg IV once every 21 days, Day 0 pre treatment 2.3): WNL
- Lymphnode R SMLN size (Day 42 (Treatment #3), 0.3 mg/kg IV once every 21 days, Day 0 pre treatment 2.9): WNL
- Lymphnode L SMLN size (Day 42 (Treatment #3), 0.3 mg/kg IV once every 21 days, Day 0 pre treatment 3.1): WNL**
- Lymphnode R PSLN size (Day 42 (Treatment #3), 0.3 mg/kg IV once every 21 days, Day 0 pre treatment 3.6): WNL
- Lymphnode L PSLN size (Day 42 (Treatment #3), 0.3 mg/kg IV once every 21 days, Day 0 pre treatment 5.0): WNL
- Response (RECIST) [5]: CR (Complete Response (CR) if lymphnodes returned to a size within normal limits)
- % change of sum of lymphnodes [5]: −100%
- Response to treatment (after one treatment, 0.3 mg/kg IV): Partial Response
- reduction in tumor size (starting on Day 7 after the first treatment, continued improvement to day 42): significant reduction in tumor size
- Response to treatment (with continued treatment, 0.3 mg/kg IV once every 21 days): Complete Response with complete elimination of the tumor
